{"source": "patent US11077102B2", "about": "“Multidose package, course and method of treatment for delivering predetermined multiple doses of a pharmaceutical” (BAUSCH HEALTH IRELAND LIMITED, priority 2009, dated 2021)", "experiment": "Stability of formulation in multi-dose container (Rexam 2.05 mL Sof' Airless)", "assay_type": "physicochemical", "experimental": "Once a candidate package is identified, stability trials are carried out to determine compatibility of the formulation with the container components. Testing is carried out on the formulation packed in the selected containers and stored under a number of controlled conditions (e.g., 40° C./75% RH and 25° C./60% RH) for a specified time up to the expiry date of the product. Tests will include determination of imiquimod content, preservative content, impurity content, appearance, microscopic examination, pH levels and visual container assessment against set standards.\nTwo batches of Aldara cream were dispensed into Rexam™ 2.05 mL Sof' Airless™ containers. The batches had been previously tested to determine the amount of preservatives (methyl hydroxybenzoate (MHB), propyl hydroxybenzoate (PHB) benzyl alcohol) and imiquimod, at the beginning of the study in Table 4 below.\nThe batches were stored under various conditions and then analyzed at 2 months, 4 months, 5.5 months and 13 months as shown in Tables 5 to 7 below. The presence of the contaminant 4-OH-R837 was also tested. NOTE: 4-OH-R837 is an Imiquimod impurity.", "data": [{"smiles": "CC(C)Cn1cnc2c(=O)[nH]c3ccccc3c21", "note": "[4 Hydroxy Imipquimod, 4-Hydroxyimiquimod]", "values": [{"measurement": "Impurity level in Aldara cream in multi-dose container", "setting": "up to and including 13 months", "result": "below detection limits"}]}, {"smiles": "OCc1ccccc1", "note": "[Benzyl alcohol, benzyl alcohol]", "values": [{"measurement": "Benzyl alcohol levels in Aldara cream in multi-dose container", "setting": "40 C/75% RH, up to 13 months, lower specification limit 1.00% w/w", "result": "just below the lower specification limit"}]}, {"smiles": "COC(=O)c1ccc(O)cc1", "note": "[MHB, methyl hydroxybenzoate]", "values": [{"measurement": "Stability in Aldara cream in multi-dose container", "setting": "up to and including 13 months, both 25 C/60% RH and 40 C/75% RH", "result": "good stability"}]}]}
